According to paper PMC10683025, “Discovery of a Hydroxylamine-Based Brain-Penetrant EGFR Inhibitor for Metastatic Non-Small-Cell Lung Cancer” (Journal of Medicinal Chemistry, 2023):
Like-named read-outs stand apart in the source and are kept apart here.

Tests used:
[1] = Pharmacokinetic study; assay type: in vivo, Sprague-Dawley rats
Procedure: Animal experiments were performed at Pharmaron, Inc. and animal use was approved by Pharmaron’s Institutional Animal Care and Use Committee (IACUC) in Pharmaron (Pharmaron IACUC, Protocol #PK-M-07182022, #PK-R-06012022, and #ON-CELL-XEN-06012022) following the guidance of AAALAC. Six- to eight-week-old male Sprague-Dawley rats (approximately 200–300 g) obtained from Si Bei Fu Laboratory Animal Technology Co., six- to eight-week-old male CD1 mice (approximately 20–30 g) obtained from Si Bei Fu Laboratory Animal Technology Co., and six- to eight-week-old female BALB/c nude mice (approximately 20–30 g) obtained from Si Bei Fu Laboratory Animal Technology Co., were used in the pharmacokinetic studies. Six- to eight-week-old female BALB/c nude mice (approximately 18–22 g) obtained from Beijing Anikeeper Biotech Co., Ltd. were used in the intracranial PDX study. Animals were housed at 20–25 °C with humidity ranging from 40 to 70% relative humidity, were exposed to 12 h light and dark cycles, and were supplied with food and water ab libitum.
Approximately 0.03 mL of blood was collected from the dorsal metatarsal vein (in the case of CD1 mice), 0.03 mL of blood from the orbit vein (in the case of BALB/c nude mice), or 0.2 mL of blood from the jugular vein (in the case of Sprague-Dawley rats) at each time point. Blood at each sampling point was transferred into a plastic micro centrifuge tube containing K2-EDTA, and collection tubes with blood samples and anticoagulant were inverted several times for proper mixing of the tube contents and placed on ice prior to centrifugation for plasma. Blood samples were centrifuged at 4 °C, 4000g for 5 min to obtain plasma. Samples were stored in a freezer at −75 °C prior to analysis. Concentrations of test articles in the plasma samples were determined using LC-MS/MS and WinNonlin 8.3 (Phoenix) was used for pharmacokinetic calculations. The values obtained were plotted on GraphPad Prism software and are presented as mean ± SD.

[2] = Metabolic stability in liver microsomes; assay type: in vitro ADME, Sprague-Dawley rat; conditions: for half-life at 1 h, 1 µM / microsomal CLint at 1 h, 1 µM: Sprague-Dawley, rat, liver microsomes; for half-life at 1 h, 1 µM: read-out: LM t1/2; for microsomal CLint at 1 h, 1 µM: read-out: LMClint; for Remaining Percentage: rat LM
Procedure: Microsome stability was assessed in duplicate (n = 2) in the presence and absence of nicotinamide adenine dinucleotide phosphate (NADPH) with liver microsomes (0.5 mg/mL) from human (BD Gentest) and Sprague-Dawley rats (BD Gentest). Compounds were incubated in liver microsomes at 1 μM and samples (30 μL) were taken at 0.5, 15, 30, 45, and 60 min time points for analysis by LC-MS/MS. Hepatocyte stability was assessed in duplicate (n = 2) at a working cell density of 0.5 × 10^6 cells/mL with hepatocytes from human (BiolVT), Sprague-Dawley rat (BiolVT), cynomolgus monkey (RILD) or beagle dog (BiolVT). […] The in vitro half-life and intrinsic clearances were determined as previously described.[76]
In vitro half-life (in vitro t1/2) was determined from the slope value in [drawing 1] where k was determined by linear regression of the natural logarithm of the remaining percentage of the parent drug vs the incubation time curve.

[3] = target: T1, EGFRwt (Homo sapiens, UniProt P00533); assay: KinaseProfiler enzymatic radiometric assay; assay type: biochemical; conditions: wt, ATP 10 μM; read-out: EGFR IC50
T1 construct: purchased Eurofins DiscoverX (contract assay)
T1 sequence (P00533 25-1210): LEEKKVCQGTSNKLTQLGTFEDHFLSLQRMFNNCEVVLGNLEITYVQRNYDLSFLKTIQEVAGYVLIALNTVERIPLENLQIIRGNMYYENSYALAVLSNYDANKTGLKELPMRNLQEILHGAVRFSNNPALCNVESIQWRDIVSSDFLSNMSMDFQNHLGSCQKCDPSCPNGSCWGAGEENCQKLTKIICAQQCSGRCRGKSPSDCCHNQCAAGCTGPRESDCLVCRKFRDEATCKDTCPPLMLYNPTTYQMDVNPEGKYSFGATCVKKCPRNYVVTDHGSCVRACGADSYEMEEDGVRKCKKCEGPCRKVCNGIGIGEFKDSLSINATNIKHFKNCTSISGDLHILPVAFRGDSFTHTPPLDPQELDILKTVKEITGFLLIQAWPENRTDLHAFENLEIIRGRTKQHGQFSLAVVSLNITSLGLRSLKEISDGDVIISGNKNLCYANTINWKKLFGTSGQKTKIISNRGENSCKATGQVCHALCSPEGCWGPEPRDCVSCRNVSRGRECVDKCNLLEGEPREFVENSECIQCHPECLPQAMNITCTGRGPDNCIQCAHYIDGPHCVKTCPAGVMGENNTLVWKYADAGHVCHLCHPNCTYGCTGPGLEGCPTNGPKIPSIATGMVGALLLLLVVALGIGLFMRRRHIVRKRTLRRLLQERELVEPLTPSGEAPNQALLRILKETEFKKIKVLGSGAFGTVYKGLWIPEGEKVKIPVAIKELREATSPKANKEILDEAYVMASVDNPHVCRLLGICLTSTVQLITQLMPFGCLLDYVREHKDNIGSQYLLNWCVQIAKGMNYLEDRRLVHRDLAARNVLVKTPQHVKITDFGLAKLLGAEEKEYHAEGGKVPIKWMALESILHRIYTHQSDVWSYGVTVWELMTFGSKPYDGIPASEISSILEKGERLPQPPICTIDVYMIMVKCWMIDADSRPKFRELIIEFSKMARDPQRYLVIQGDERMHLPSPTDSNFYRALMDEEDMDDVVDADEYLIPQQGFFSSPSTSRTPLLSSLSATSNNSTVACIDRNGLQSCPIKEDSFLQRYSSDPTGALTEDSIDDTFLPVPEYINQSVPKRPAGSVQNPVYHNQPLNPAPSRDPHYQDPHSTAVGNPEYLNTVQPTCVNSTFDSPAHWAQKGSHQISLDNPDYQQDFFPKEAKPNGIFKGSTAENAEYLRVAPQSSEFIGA
Procedure: In vitro kinase activity (inhibitor binding constants (Kd) and biochemical inhibition (IC50’s)) were assessed by Eurofins DiscoverX (Kd determinations) and Eurofins Cerep (biochemical IC50 determinations).

[4] = system: Ba/F3 EGFR-L858R/C797S cells; assay: CellTiter-Glo cell viability assay; assay type: cell-based; conditions: Mus musculus, BaF3; 72 h, unadjusted for FBS
Procedure: (§1) The A431, HCC827, SK-BR-3, ZR-75–30, AU565, and Caco-2 cell lines were obtained from ATCC. The NCI-H1975 cell line was obtained from SIBS. The NCI-H3255 cell line was obtained from CoBioer. Engineered Ba/F3 cell lines were obtained from Crown Bioscience. MCKII-MDR1 cells were obtained from The Netherlands Cancer Institute. HEK293 cells were obtained from Invitrogen. A431 cells were cultured in DMEM (Life Technologies) with 10% FBS. HCC827, NCI-H1975, and AU565 cells were cultured in RPMI1640 (Invitrogen) with 10% FBS. NCI-H3255 cells were cultured in BEGM (Lonza) with 10% FBS. Ba/F3 EGFR-del E746_A750/C797S and Ba/F3 EGFR-L858R/C797S cells were cultured in RPMI (Invitrogen) with 10% FBS. SK-BR-3 cells were cultured in McCoy’s 5a (Invitrogen) with 10% FBS. ZR-75-30 cells were cultured in RPMI1640 (Invitrogen) with 20% FBS. Caco-2 and MCKII-MDR1 culture information is given in the Permeability Studies section. HEK293 cells were cultured in DMEM (Gibco) with 10% FBS, 0.1 mM NEAA, 25 mM HEPES, 100 U/mL penicillin-streptomycin, μg/mL blasticidin, and 400 μg/mL Geneticin. All cells were cultured in a humidified incubator with 5% CO2 at 37 °C.
(§2) Viability assays using A431, HCC827, NCI-H1975, NCI-H3255, Ba/F3 EGFR-del E746_A750/C797S, Ba/F3 EGFR-L858R/C797S, AU565, SK-BR-3, and ZR-75-30 cells were performed at Crown BioScience. Cells were plated into 96-well plates at 1500–7000 cells per well and dosed in triplicate (n = 3) in a nine-point, 4-fold dilution series with compounds (0.15 nM to 10 μM) in DMSO and incubated for 72 h. After 72 h, cell viability was assayed by CellTiter-Glo Luminescent Viability Assay (Promega). Dose–response curves were generated and used to calculate the IC50 values which were calculated on GraphPad Prism from the nonlinear regression equation fitted with a sigmoidal dose response and are presented as mean ± SEM.

[5] = system: Ba/F3 EGFR-del E746_A750/C797S cells; assay: CellTiter-Glo cell viability assay; assay type: cell-based; conditions: Mus musculus, BaF3; 72 h, unadjusted for FBS
Procedure: as §1, §2

[6] = system: NCI-H3255 (EGFR mutation = L858R); assay: CellTiter-Glo cell viability assay; assay type: cell-based, human; conditions: NCI-H3255; for IC50: Homo sapiens, 72 h, unadjusted for FBS
Procedure: The NCI-H3255 cell line was obtained from CoBioer. […] NCI-H3255 cells were cultured in BEGM (Lonza) with 10% FBS. […] All cells were cultured in a humidified incubator with 5% CO2 at 37 °C.

[7] = Lipophilicity, shake-flask; assay type: physicochemical; conditions: 1-octanol/PBS; 1-octanol and PBS (pH 7.4); read-out: logD7.4
Procedure: Compound lipophilicity was determined by Pharmaron, Inc. using the shake-flask method with 1-octanol and PBS (pH 7.4). Each compound was assessed in duplicate (n = 2) at 1 μM in a 96-well plate shaken at 25 °C and 2000 rpm for 2 h. Samples were analyzed by liquid chromatography and tandem mass spectrometry (LC-MS/MS).

[8] = Plasma protein binding by equilibrium dialysis; assay type: in vitro ADME, mouse
Procedure: Plasma protein binding and brain tissue binding were determined by Pharmaron, Inc. using the equilibrium dialysis method. […] Following incubation, the samples were analyzed by LC-MS/MS and the concentrations of the compounds were determined in the buffer and plasma solution chambers.

[9] = target: T2, CYP1A2 (Homo sapiens, UniProt P05177); assay: CYP450 inhibition in human liver microsomes; assay type: in vitro ADME
T2 construct: tissue BD Gentest; host or cells: pooled human liver microsomes
T2 sequence (P05177 whole entry): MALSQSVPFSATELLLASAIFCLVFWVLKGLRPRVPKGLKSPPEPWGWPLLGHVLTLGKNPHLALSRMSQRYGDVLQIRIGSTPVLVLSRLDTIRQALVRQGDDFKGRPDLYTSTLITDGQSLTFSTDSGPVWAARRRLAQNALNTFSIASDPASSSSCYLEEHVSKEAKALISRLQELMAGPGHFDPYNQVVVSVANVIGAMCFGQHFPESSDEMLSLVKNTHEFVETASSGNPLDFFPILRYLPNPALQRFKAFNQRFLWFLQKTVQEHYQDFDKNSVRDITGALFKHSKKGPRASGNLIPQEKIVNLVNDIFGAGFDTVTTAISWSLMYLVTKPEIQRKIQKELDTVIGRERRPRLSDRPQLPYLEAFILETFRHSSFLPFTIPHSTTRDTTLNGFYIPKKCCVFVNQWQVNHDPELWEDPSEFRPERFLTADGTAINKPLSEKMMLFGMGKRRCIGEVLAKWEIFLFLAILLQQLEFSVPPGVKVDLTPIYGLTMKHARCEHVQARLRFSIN
Procedure: The activities tested were CYP1A2-mediated phenacetin O-demethylation, CYP2C19-mediated (S)-mephenyotin 4′-hydroxylation, CYP2C9-mediated diclofenac 4′-hydroxylation, CYP2D6-mediated dextromethorphan O-demethylation, and CYP3A4-mediated midazolam 1′-hydroxylation. […] The reactions were initiated by adding NADPH (1 mM final concentration) after a 5 min preincubation, and the assay was run in duplicate (n = 2). Samples were analyzed by ultra-performance liquid chromatography tandem mass spectrometry (UPLC-MS/MS).

[10] = target: T3, ABL1(F317I)-phosphorylated (Homo sapiens, UniProt P00519, F317I); assay: KINOMEScan; assay type: binding; conditions: read-out: Percent Control
T3 construct: purchased Eurofins DiscoverX
T3 sequence (P00519 whole entry F317I): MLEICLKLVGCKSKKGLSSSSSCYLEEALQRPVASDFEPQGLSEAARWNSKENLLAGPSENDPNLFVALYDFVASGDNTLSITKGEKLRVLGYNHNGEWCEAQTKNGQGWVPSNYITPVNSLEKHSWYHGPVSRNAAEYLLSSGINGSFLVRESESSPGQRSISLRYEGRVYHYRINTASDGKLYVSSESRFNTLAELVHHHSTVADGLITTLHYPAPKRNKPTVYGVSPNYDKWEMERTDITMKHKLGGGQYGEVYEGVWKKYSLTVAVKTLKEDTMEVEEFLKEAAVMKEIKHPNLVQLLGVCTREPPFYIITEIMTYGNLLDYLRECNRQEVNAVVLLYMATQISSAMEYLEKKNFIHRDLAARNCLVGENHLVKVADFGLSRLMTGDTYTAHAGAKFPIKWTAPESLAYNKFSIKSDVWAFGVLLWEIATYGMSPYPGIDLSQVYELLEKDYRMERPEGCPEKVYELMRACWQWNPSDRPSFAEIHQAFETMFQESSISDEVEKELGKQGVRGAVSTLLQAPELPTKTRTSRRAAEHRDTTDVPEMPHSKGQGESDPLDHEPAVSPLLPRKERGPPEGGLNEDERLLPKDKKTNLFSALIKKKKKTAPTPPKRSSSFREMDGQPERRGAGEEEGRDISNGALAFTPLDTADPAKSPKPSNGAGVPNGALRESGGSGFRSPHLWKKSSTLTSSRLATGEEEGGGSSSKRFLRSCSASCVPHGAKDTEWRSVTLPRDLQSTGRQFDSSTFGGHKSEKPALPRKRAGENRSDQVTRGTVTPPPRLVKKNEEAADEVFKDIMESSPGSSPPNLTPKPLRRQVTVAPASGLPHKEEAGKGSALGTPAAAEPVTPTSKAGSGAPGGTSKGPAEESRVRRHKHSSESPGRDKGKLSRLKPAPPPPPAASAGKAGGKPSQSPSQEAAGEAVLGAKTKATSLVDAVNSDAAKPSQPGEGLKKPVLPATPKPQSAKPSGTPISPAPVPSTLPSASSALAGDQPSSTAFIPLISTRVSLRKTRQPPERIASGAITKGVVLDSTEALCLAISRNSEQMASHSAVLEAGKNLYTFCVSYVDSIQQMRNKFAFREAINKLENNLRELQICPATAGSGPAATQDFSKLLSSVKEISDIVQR
Excerpt: Percent control was mapped onto the kinome tree using TREEspot.

[11] = male, Sprague-Dawley, plasma, rat, 1 mg/kg IV and 5 mg/kg PO dosing (route of value not stated)
[12] = CD-1, mouse, mouse plasma, read-out: %Bound (converted)
[13] = CD-1, plasma, mouse, 5 μM, read-out: fu,plasma% / %Unbound
[14] = male, Sprague-Dawley, plasma, Rat 2 mg/kg (IV)
[15] = male, Sprague-Dawley, plasma, Rat 20 mg/kg (PO)

Which AUC(0-inf) at 24 h [1, 11] does the source give for `COc1cc2ncnc(Nc3cccc(Cl)c3F)c2cc1OCCON1CCOCC1` [Compound 7, N-(3-Chloro-2-fluorophenyl)-7-methoxy-6-(2-(morpholinooxy)ethoxy)quinazolin-4-amine] here?
Its AUC(0-inf) at 24 h is 89 ng·h/mL.

And the half-life at 24 h [1, 11]?
Its half-life at 24 h is 0.56 h.

And the half-life at 1 h, 1 µM [2]?
Its half-life at 1 h, 1 µM is 0.167 h.

What about the microsomal CLint at 1 h, 1 µM [2] of the same compound?
The microsomal CLint at 1 h, 1 µM was 138 µL/min/mg.

What about the “Remaining Percentage” value ([2]; +Cofactors, 15 min) of the same compound?
The value was 28.79%.

And the “Remaining Percentage” value ([2]; +Cofactors, 30 min)?
The value was 12.97%.

What about the “Remaining Percentage” value ([2]; +Cofactors, 45 min) of the same compound?
The value was 8.49%.

And the “Remaining Percentage” value ([2]; +Cofactors, 60 min)?
Its value is 5.84%.

And the “Remaining Percentage” value ([2]; -Cofactors, 60 min)?
Its value is 118.60%.

And the IC50 [3]?
The IC50 was 3 nM.

And the IC50 [4]?
The IC50 was 5 nM.

And the IC50 [5]?
The IC50 was 2.5 nM.

What about the IC50 [6] of the same compound?
Its IC50 is 17 nM.

What about the logD at 2 h, 1 µM [7] of the same compound?
Its logD at 2 h, 1 µM is 3.4.

What about the recovery at 6 h, 5 μM ([8]; CD-1, mouse, mouse plasma) of the same compound?
The recovery at 6 h, 5 μM was 98.4%.

What about the remaining at 6 h, 5 μM ([8]; CD-1, mouse, mouse plasma) of the same compound?
Its remaining at 6 h, 5 μM is 102%.

What about the fraction unbound at 6 h, 5 μM [8, 12] of the same compound?
The fraction unbound at 6 h, 5 μM was 0.0665.

What about the fraction unbound at 6 h, 5 μM [8, 13] of the same compound?
Its fraction unbound at 6 h, 5 μM is 0.0665.

For `COc1cc2ncnc(Nc3cccc(Cl)c3F)c2cc1OCCON1CCN(C)CC1` [Compound 9, N-(3-Chloro-2-fluorophenyl)-7-methoxy-6-(2-((4-methylpiperazin-1-yl)oxy)ethoxy)quinazolin-4-amine], which “adverse events or signs of toxicity” value ([1]; Sprague-Dawley rats at the tested PK doses) is on record?
Its value is “No adverse events or signs of toxicity were observed”.

And the clearance at 24 h [1, 14]?
Its clearance at 24 h is 59.6 ± 22.2 mL/min/kg.

What about the half-life at 24 h [1, 14] of the same compound?
Its half-life at 24 h is 2.4 ± 1.07 h.

What about the Vd at 24 h ([1]; male, Sprague-Dawley, plasma, Rat 2 mg/kg (IV), read-out: Vss) of the same compound?
The Vd at 24 h was 6.67 L/kg.

And the Cmax at 24 h [1, 15]?
The Cmax at 24 h was 653 ± 106 nM.

What about the Tmax at 24 h [1, 15] of the same compound?
The Tmax at 24 h was 2 h.

And the bioavailability at 24 h [1, 15]?
The bioavailability at 24 h was 64%.

What about the half-life at 24 h [1, 15] of the same compound?
Its half-life at 24 h is 2.37 h.

What about the AUC(0-inf) at 24 h [1, 11] of the same compound?
Its AUC(0-inf) at 24 h is 279 ng·h/mL.

And the half-life at 24 h [1, 11]?
The half-life at 24 h was 2.29 h.

What about the AUC(0-inf) ([1]; male, Sprague-Dawley, plasma, rat, 20 mg/kg PO) of the same compound?
The AUC(0-inf) was 3910 ng·h/mL.

And the half-life at 1 h, 1 µM [2]?
The half-life at 1 h, 1 µM was 0.158 h.

What about the microsomal CLint at 1 h, 1 µM [2] of the same compound?
Its microsomal CLint at 1 h, 1 µM is 146 µL/min/mg.

And the “Remaining Percentage” value ([2]; +Cofactors, 15 min)?
Its value is 34.07%.

And the “Remaining Percentage” value ([2]; +Cofactors, 30 min)?
The value was 11.66%.

And the “Remaining Percentage” value ([2]; +Cofactors, 45 min)?
Its value is 6.01%.

And the “Remaining Percentage” value ([2]; +Cofactors, 60 min)?
The value was 2.50%.

What about the “Remaining Percentage” value ([2]; -Cofactors, 60 min) of the same compound?
Its value is 113.38%.

What about the IC50 [3] of the same compound?
The IC50 was 3 nM.

And the IC50 [4]?
Its IC50 is 4.6 nM.

And the IC50 [5]?
Its IC50 is 2.5 nM.

And the IC50 [9]?
The IC50 was greater than 30000 nM.

And the IC50 [6]?
Its IC50 is 7.2 nM.

And the “improvement of IC50 over 6” value [6]?
Its value is “roughly 12 fold”.

And the logD at 2 h, 1 µM [7]?
The logD at 2 h, 1 µM was 2.8.

And the recovery at 6 h, 5 μM ([8]; CD-1, mouse, mouse plasma)?
The recovery at 6 h, 5 μM was 95.4%.

And the remaining at 6 h, 5 μM ([8]; CD-1, mouse, mouse plasma)?
The remaining at 6 h, 5 μM was 92.9%.

What about the fraction unbound at 6 h, 5 μM [8, 12] of the same compound?
Its fraction unbound at 6 h, 5 μM is 0.0702.

What about the fraction unbound at 6 h, 5 µM [8, 13] of the same compound?
The fraction unbound at 6 h, 5 µM was 0.07.

What about the fraction unbound at 6 h, 5 μM [8, 13] of the same compound?
The fraction unbound at 6 h, 5 μM was 0.0702.

What about the remaining binding at 1 µM [10] of the same compound?
Its remaining binding at 1 µM is 48%.
